In ChEMBL document CHEMBL4507326, “Data for DCP probe TP-030-2” (2021):
The source made the active and inactive calls. The rule behind the calls is not given here.

Legend:
[1] = target: Serine/threonine-protein kinase LATS1 (Homo sapiens, UniProt O95835); assay: LATS1(LAT1LGRJ) Takeda global kinase panel
[2] = target: Serine/threonine-protein kinase PAK 5 (Homo sapiens, UniProt Q9P286); assay: PAK5(PAK7LGF1) Takeda global kinase panel
[3] = target: Dual specificity protein kinase CLK3 (Homo sapiens, UniProt P49761); assay: CLK3(CLK3LGY1) Takeda global kinase panel
[4] = target: Neuropeptide Y receptor type 2 (Homo sapiens) (UniProt P49146); assay: Inhibition of Neuropeptide Y Y2 at 10 µM in the Eurofins-Panlabs radioligand binding assay (Eurofins_assay_257110); conditions: Compound concentration 10.0 uM
[5] = target: Interleukin-1 receptor-associated kinase 4 (Homo sapiens, UniProt Q9NWZ3); assay: IRAK4(IRK4LGF1) Takeda global kinase panel
[6] = target: Sodium-dependent dopamine transporter (Homo sapiens) (UniProt Q01959); conditions: Compound concentration 10.0 uM
[7] = target: Bone morphogenetic protein receptor type-1B (Homo sapiens, UniProt O00238); assay: BMPR1B(BM1BLGF1) Takeda global kinase panel
[8] = target: Mu-type opioid receptor (Homo sapiens) (UniProt P35372); conditions: Compound concentration 10.0 uM
[9] = target: Cyclin-dependent kinase 4 (Homo sapiens, UniProt P11802); assay: CDK4(CDK4CGS1) Takeda global kinase panel
[10] = target: Alpha-2C adrenergic receptor (Homo sapiens) (UniProt P18825); conditions: Compound concentration 10.0 uM
[11] = target: D(1B) dopamine receptor (Homo sapiens) (UniProt P21918); conditions: Compound concentration 10.0 uM
[12] = target: Homeodomain-interacting protein kinase 4 (Homo sapiens, UniProt Q8NE63); assay: HIPK4(HIP4LHY1) Takeda global kinase panel
[13] = target: Tyrosine-protein kinase Srms (Homo sapiens, UniProt Q9H3Y6); assay: Srm(SRMSLGY1) Takeda global kinase panel
[14] = target: Muscle, skeletal receptor tyrosine-protein kinase (Homo sapiens, UniProt O15146); assay: MUSK(MUSKLGY1) Takeda global kinase panel
[15] = target: Tyrosine-protein kinase Mer (Homo sapiens, UniProt Q12866); assay: Mer(MERTLGF1) Takeda global kinase panel
[16] = target: Dual specificity tyrosine-phosphorylation-regulated kinase 4 (Homo sapiens, UniProt Q9NR20); assay: DYRK4(DYR4LHY1) Takeda global kinase panel
[17] = target: Serine/threonine-protein kinase ICK (Homo sapiens, UniProt Q9UPZ9); assay: ICK(ICK1LGP1) Takeda global kinase panel
[18] = target: RAC-beta serine/threonine-protein kinase (Homo sapiens, UniProt P31751); assay: Akt2 [PKBbeta(AKT2CGY1)] Takeda global kinase panel
[19] = target: Serine/threonine-protein kinase Chk2 (Homo sapiens, UniProt O96017); assay: CHK2(CHE2LGY1) Takeda global kinase panel
[20] = target: 5-hydroxytryptamine receptor 2C (Homo sapiens) (UniProt P28335); conditions: Compound concentration 10.0 uM
[21] = target: Serine/threonine-protein kinase VRK2 (Homo sapiens, UniProt Q86Y07); assay: VRK2(VRK2LGRI) Takeda global kinase panel
[22] = target: Muscarinic acetylcholine receptor M1 (Homo sapiens) (UniProt P11229); conditions: Compound concentration 10.0 uM
Rattus norvegicus = species on record: Rattus norvegicus; assay: Inhibition of Thyroid Hormone at 10 µM in the Eurofins-Panlabs radioligand binding assay (Eurofins_assay_285900); assay type: protein assay; conditions: Compound concentration 10.0 uM
[23] = target: D(4) dopamine receptor (Homo sapiens) (UniProt P21917); conditions: Compound concentration 10.0 uM
[24] = target: Serine/threonine-protein kinase N2 (Homo sapiens, UniProt Q16513); assay: PKN2 [PRK2(PKN2LGG5)] Takeda global kinase panel
[25] = target: Serine/threonine-protein kinase RIO2 (Homo sapiens, UniProt Q9BVS4); assay: RIOK2(RIO2LGF1) Takeda global kinase panel
[26] = target: Cyclin-dependent kinase 14 (Homo sapiens, UniProt O94921); assay: PFTAIRE1(CD14CGS1) Takeda global kinase panel
[27] = target: NT-3 growth factor receptor (Homo sapiens, UniProt Q16288); assay: TRKC(NTR3LGN1) Takeda global kinase panel
[28] = target: Cyclin-dependent kinase 2 (Homo sapiens, UniProt P24941); assay: CDK2(CDK2CGS1) Takeda global kinase panel
[29] = target: Microtubule-associated serine/threonine-protein kinase 1 (Homo sapiens, UniProt Q9Y2H9); assay: MAST1(MAS1LGE5) Takeda global kinase panel
[30] = target: Receptor-interacting serine/threonine-protein kinase 1 (Homo sapiens, UniProt Q13546); assay: TR-FRET (human RIPK1)
hERG (KCNH2) = hERG (KCNH2) (Homo sapiens, UniProt Q12809); assay: Inhibition of Potassium Channel hERG at 10 µM in the Eurofins-Panlabs radioligand binding assay (Eurofins_assay_265900); set-up: ligand concentration 1.5 nM, non-specific ligand with concentration Astemizole, incubation time 60 min, incubation temperature 25 °C; conditions: HEK-293 cells expressing human recombinant hERG, probe [3H] Astemizole, compound concentration 10 uM
[31] = target: Sigma intracellular receptor 2 (Homo sapiens, UniProt Q5BJF2); conditions: Compound concentration 10.0 uM
[32] = target: cAMP-dependent protein kinase catalytic subunit gamma (Homo sapiens, UniProt P22612); assay: PKAgamma(PRCGLGY1) Takeda global kinase panel
[33] = target: Serine/threonine-protein kinase 32B (Homo sapiens, UniProt Q9NY57); assay: YANK2(S32BLGY2) Takeda global kinase panel
[34] = target: D(2) dopamine receptor (Homo sapiens) (UniProt P14416); conditions: Compound concentration 10.0 uM
[35] = target: Alpha-1A adrenergic receptor (Homo sapiens) (UniProt P35348); conditions: Compound concentration 10.0 uM
[36] = target: Casein kinase I isoform alpha (Homo sapiens, UniProt P48729); assay: CK1alpha(C1A1PHY1) Takeda global kinase panel
[37] = target: Inhibitor of nuclear factor kappa-B kinase subunit alpha (Homo sapiens, UniProt O15111); assay: IKKalpha(CHUKLGP1) Takeda global kinase panel
[38] = target: Interferon-induced, double-stranded RNA-activated protein kinase (Homo sapiens, UniProt P19525); assay: PKR(EIK2LGY1) Takeda global kinase panel
[39] = target: Glucocorticoid receptor (Homo sapiens) (UniProt P04150); conditions: Compound concentration 10.0 uM
[40] = target: Serine/threonine-protein kinase D3 (Homo sapiens, UniProt O94806); assay: PKD3(PRD3LGG5) Takeda global kinase panel
[41] = target: Protein kinase C epsilon type (Homo sapiens, UniProt Q02156); assay: PKCepsilon(PRKELHY1) Takeda global kinase panel
[42] = target: Serine/threonine-protein kinase PAK 4 (Homo sapiens, UniProt O96013); assay: PAK4(PAK4CGY1) Takeda global kinase panel
[43] = target: MAP kinase-activated protein kinase 5 (Homo sapiens, UniProt Q8IW41); assay: MAPKAPK5(MPK5LGN1) Takeda global kinase panel

Serine/threonine-protein kinase LATS1, sequence (O95835 whole entry): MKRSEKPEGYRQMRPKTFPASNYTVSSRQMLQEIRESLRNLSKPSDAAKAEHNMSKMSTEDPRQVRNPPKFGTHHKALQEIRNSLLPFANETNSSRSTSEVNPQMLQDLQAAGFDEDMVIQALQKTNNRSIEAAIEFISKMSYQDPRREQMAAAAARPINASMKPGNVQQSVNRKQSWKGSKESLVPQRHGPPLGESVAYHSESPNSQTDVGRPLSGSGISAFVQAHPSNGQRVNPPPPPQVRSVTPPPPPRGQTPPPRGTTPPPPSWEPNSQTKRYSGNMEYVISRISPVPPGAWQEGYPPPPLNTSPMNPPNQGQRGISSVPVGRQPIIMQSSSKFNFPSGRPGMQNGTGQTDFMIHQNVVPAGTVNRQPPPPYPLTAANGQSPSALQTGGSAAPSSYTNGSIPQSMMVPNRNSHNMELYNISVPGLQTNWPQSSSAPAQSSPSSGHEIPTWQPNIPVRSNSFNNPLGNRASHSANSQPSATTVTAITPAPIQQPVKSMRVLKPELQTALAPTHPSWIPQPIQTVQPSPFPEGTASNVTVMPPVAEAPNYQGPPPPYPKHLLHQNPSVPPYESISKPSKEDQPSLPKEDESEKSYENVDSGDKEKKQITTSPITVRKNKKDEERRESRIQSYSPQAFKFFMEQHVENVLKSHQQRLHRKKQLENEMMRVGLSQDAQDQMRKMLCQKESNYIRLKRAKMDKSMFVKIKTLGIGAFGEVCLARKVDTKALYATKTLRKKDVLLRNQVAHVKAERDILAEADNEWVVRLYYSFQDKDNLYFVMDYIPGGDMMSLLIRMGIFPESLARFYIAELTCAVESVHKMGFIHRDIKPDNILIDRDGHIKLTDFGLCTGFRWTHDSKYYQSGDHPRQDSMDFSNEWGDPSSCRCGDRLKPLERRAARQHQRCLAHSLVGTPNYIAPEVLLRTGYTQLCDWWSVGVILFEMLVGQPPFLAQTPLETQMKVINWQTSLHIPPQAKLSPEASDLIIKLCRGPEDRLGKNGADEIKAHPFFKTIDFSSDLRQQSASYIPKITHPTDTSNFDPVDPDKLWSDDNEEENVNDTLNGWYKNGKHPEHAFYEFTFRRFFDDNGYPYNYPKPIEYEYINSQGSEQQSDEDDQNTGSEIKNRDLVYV
Tyrosine-protein kinase Mer, sequence (Q12866 whole entry): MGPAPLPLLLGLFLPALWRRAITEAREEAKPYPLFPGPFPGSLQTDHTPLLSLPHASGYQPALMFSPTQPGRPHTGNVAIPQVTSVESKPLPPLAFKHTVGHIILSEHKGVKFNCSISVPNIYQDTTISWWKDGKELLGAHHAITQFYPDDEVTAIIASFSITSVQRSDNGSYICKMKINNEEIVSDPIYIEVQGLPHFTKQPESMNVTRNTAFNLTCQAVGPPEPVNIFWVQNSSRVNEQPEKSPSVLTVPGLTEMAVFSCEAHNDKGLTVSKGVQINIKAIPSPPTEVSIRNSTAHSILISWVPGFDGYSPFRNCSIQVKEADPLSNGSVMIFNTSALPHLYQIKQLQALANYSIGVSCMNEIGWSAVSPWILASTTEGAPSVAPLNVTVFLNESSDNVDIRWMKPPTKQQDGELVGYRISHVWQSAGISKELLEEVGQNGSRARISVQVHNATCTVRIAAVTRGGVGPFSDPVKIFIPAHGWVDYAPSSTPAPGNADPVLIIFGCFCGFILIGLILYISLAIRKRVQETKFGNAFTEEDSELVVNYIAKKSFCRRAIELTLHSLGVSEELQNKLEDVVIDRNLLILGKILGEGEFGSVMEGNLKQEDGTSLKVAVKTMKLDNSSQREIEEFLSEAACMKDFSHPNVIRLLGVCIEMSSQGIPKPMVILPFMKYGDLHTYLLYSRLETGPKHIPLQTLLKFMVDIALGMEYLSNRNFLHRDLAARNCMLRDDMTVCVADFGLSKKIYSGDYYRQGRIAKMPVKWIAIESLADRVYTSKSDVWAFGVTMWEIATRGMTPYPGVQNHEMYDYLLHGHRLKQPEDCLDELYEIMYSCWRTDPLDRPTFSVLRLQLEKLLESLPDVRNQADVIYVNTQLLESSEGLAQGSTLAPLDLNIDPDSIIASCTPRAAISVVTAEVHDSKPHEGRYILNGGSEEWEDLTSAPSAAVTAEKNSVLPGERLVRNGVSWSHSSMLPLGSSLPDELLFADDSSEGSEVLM
Casein kinase I isoform alpha, sequence (P48729 whole entry, canonical isoform): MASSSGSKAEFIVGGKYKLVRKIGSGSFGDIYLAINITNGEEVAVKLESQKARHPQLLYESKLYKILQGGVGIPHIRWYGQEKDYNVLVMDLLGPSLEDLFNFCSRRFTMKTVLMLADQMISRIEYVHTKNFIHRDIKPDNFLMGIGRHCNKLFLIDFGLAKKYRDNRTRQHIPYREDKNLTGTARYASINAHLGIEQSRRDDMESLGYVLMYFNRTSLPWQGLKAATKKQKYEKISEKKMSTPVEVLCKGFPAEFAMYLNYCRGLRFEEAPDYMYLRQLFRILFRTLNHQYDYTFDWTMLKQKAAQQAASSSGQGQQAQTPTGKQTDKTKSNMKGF
Serine/threonine-protein kinase PAK 4, sequence (O96013 whole entry): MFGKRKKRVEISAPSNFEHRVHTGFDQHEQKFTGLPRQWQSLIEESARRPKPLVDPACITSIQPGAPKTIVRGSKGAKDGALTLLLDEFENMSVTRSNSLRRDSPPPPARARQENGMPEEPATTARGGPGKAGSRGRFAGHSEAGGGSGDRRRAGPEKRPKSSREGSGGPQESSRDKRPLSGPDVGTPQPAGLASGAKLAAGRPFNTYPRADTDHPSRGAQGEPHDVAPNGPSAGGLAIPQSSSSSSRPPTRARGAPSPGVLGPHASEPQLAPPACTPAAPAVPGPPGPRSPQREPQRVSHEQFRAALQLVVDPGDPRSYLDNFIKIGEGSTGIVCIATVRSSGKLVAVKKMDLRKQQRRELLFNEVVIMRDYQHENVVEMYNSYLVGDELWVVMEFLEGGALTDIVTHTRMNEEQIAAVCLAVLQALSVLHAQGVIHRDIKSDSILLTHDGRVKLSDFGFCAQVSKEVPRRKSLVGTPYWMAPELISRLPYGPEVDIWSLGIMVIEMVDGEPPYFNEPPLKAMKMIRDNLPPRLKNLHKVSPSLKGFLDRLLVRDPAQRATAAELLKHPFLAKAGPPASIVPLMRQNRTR
Sigma intracellular receptor 2, sequence (Q5BJF2 whole entry): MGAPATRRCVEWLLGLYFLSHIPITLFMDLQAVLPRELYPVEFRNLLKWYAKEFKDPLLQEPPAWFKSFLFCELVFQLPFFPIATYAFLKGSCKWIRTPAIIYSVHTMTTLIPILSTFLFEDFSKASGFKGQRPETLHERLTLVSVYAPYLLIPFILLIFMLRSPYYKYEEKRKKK
Serine/threonine-protein kinase ICK, sequence (Q9UPZ9 whole entry): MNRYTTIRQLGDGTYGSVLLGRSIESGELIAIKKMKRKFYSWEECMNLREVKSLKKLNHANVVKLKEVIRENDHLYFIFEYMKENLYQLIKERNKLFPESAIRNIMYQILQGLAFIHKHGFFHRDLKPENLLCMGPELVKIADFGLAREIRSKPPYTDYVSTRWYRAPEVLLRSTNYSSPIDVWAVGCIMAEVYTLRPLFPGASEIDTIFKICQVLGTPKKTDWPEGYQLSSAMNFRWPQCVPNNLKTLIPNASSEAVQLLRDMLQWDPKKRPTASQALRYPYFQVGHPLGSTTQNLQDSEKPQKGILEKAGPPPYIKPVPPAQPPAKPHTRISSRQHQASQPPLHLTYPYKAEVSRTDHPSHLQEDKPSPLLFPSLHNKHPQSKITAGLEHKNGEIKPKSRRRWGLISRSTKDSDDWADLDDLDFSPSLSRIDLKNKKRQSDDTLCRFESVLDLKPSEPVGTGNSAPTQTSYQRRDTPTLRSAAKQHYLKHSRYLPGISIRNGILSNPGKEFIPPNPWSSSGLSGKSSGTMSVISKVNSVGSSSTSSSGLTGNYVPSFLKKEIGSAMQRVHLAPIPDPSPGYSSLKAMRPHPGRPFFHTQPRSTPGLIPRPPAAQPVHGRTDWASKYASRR
RAC-beta serine/threonine-protein kinase, sequence (P31751 whole entry): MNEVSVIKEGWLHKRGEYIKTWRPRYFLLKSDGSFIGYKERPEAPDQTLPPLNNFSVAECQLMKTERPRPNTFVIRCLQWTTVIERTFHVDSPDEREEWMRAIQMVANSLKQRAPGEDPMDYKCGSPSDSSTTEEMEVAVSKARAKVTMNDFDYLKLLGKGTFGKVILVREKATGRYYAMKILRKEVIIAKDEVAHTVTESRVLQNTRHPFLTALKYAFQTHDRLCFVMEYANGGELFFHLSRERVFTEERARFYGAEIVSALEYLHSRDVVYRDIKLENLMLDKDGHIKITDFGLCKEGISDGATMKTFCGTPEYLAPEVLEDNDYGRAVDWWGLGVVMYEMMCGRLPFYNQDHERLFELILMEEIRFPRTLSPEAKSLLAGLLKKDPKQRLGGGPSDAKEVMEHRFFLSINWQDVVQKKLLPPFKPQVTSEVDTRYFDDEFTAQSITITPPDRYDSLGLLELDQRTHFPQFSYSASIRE
D(2) dopamine receptor (Homo sapiens), sequence (P14416 whole entry): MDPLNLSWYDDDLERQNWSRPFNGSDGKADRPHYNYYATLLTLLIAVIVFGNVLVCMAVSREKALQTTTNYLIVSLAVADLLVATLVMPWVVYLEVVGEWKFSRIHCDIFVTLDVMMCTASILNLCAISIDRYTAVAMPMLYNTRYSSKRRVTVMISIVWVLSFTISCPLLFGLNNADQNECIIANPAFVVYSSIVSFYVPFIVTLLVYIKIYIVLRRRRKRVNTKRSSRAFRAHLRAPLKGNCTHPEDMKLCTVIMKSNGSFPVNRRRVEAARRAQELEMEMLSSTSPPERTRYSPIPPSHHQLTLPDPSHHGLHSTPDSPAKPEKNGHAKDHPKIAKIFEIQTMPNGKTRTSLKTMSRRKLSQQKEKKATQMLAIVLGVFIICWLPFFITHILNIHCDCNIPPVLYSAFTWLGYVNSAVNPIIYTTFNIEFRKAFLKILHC

## CN1C(=O)[C@@H](N2CCc3c(nn(Cc4ccccc4)c3Br)C2=O)COc2ccccc21 [TP-030-2]
[1]
  IC50: 1 µM
[2]
  IC50: 1 µM
[3]
  IC50: 1 µM
[4]
  inhibition: -6%
[5]
  IC50: 1 µM
[6]
  inhibition: -8.33%
[7]
  IC50: 1 µM
[8]
  inhibition: 14.6%
[9]
  IC50: 1 µM
[10]
  inhibition: 71.3%
[11]
  inhibition: 41.7%
[12]
  IC50: 1 µM
[13]
  IC50: 1 µM
[14]
  IC50: 1 µM
[15]
  IC50: 1 µM
[16]
  IC50: 1 µM
[17]
  IC50: 1 µM
[18]
  IC50: 1 µM
[19]
  IC50: 1 µM
[20]
  inhibition: 2.4%
[21]
  IC50: 1 µM
[22]
  inhibition: -4%
Rattus norvegicus
  inhibition: 4%
[23]
  inhibition: 8.9%
[24]
  IC50: 1 µM
[25]
  IC50: 1 µM
[26]
  IC50: 1 µM
[27]
  IC50: 1 µM
[28]
  IC50: 1 µM
[29]
  IC50: 1 µM
[30]
  Ki: 0.00043 µM (active)
hERG (KCNH2)
  inhibition at 60 min, 10 µM: 7% (not active)
[31]
  inhibition: 53.9%
[32]
  IC50: 1 µM
[33]
  IC50: 1 µM
[34]
  inhibition: 3%
[35]
  inhibition: -4.83%
[36]
  IC50: 1 µM
[37]
  IC50: 1 µM
[38]
  IC50: 1 µM
[39]
  inhibition: 10%
[40]
  IC50: 1 µM
[41]
  IC50: 1 µM
[42]
  IC50: 1 µM
[43]
  IC50: 1 µM
